# Results: patent US8987228B2, “Pharmaceutical composition including an A3 adenosine receptor agonist 1-deooxy-1-[N6-(3-idobenzyl)-adenin-9-yl]-N-methyl-β-D-ribofuronamide(IB-MECA/CF-101) for treatment of psoriasis” (Can-Fite Biopharma Ltd., priority 2009, dated 2015)
# “Also recorded” adds a separate entry of the source.
# Test system: moderate-to-severe chronic plaque psoriasis
# Experiment: Phase 2, multi-center, randomized, double-blind, placebo-controlled clinical study in psoriasis patients (PASI assessment)
# Format: in vivo, human
# Conditions: 12 weeks
# Protocol: A Phase 2, multi-center, randomized, double-blind, placebo-controlled clinical study was conducted in adult males and females, with ages of 18 to 70 years, with a diagnosis of moderate-to-severe chronic plaque psoriasis.
# Eligible patients were randomly assigned to receive either placebo or a clinical grade […][N^6-(3-iodobenzyl)-adenin-9-yl]-N-methyl-β-D-ribofuronamide, IB-MECA (code-named by the study sponsor, Can-Fite Biopharma, the Assignee of this application, as “CF101”) at doses of 1 mg, 2 mg and 4 mg, taken orally twice daily (namely, total daily doses of 2 mg, 4 mg and 8 mg, respectively). IB-MECA was formulated in a tablet formulation as detailed in Table 1 below. Patients were instructed to take the formulation on an empty stomach. The study duration was 12 weeks.
# The study was carried out in cohorts:
# Cohort 1: 1 mg IB-MECA or placebo.
# Cohort 2: 2 mg IB-MECA or placebo.
# Cohort 3: 4 mg IB-MECA or placebo.
# Within each cohort, patients were randomly assigned to either IB-MECA or placebo in a 3:1 ratio.
# Disease was assessed using the Psoriasis Area and Severity Index (PASI).
# Sixty two (62) patients were evaluated that belonged ton the following treatment groups (administration twice a day): […]
smiles,measurement,setting,value
"CNC(=O)[C@H]1O[C@@H](n2cnc3c(NCc4cccc(I)c4)ncnc32)[C@H](O)[C@@H]1O [IB-MECA, 1-deoxy-1-[N^6-(3-iodobenzyl)-adenin-9-yl]-N-methyl-β-D-ribofuronamide]",change in the Psoriasis Area and Severity Index (PASI) score from baseline over the study period,"2 mg IB-MECA orally twice daily (total 4 mg/day) versus placebo, patients with moderate-to-severe chronic plaque psoriasis, FIG. 1",continuous improvement in the patients' condition throughout the course of the study; also recorded: marked effect
same,difference between three doses of IB-MECA in the change in the PASI score from baseline over the study period,"2 mg twice daily (total 4 mg/day) compared with 1 mg and 4 mg twice daily (2 mg/day and 8 mg/day), oral, FIG. 2",considerably greater response over the two other tested dose groups; also recorded: significantly more effective in treatment of the psoriatic plaques than treatment of psoriasis at daily doses of 2 mg or 8 mg; also recorded: superior to a lower daily dose of 2 mg or a higher dose of 8 mg
